Source: PubChem BioAssay (NCI)
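Briefly, cells in 96-well plates were exposed to five compound concentrations for 48 h, and endpoints were estimated by linear interpolation. TGI is the concentration that stops growth completely.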

Assays:
Assay in all cases: NCI anticancer screen, dose series, 48 h
DU-145 prostate = system: DU-145 prostate
HOP-62 NSCLC = system: HOP-62 NSCLC
MALME-3M melanoma = system: MALME-3M melanoma
MDA-MB-435 = system: MDA-MB-435
NCI-H460 lung = system: NCI-H460 lung
MDA-MB-231 breast = system: MDA-MB-231 breast
HCC-2998 colon = system: HCC-2998 colon
SK-MEL-28 melanoma = system: SK-MEL-28 melanoma
OVCAR-3 ovarian = system: OVCAR-3 ovarian
A549 NSCLC = system: A549 NSCLC
NCI-H23 lung = system: NCI-H23 lung
SNB-75 CNS = system: SNB-75 CNS
RPMI-8226 leukemia = system: RPMI-8226 leukemia
NCI-H522 lung = system: NCI-H522 lung
SK-MEL-5 melanoma = system: SK-MEL-5 melanoma
ACHN renal = system: ACHN renal
UO-31 renal = system: UO-31 renal
OVCAR-4 ovarian = system: OVCAR-4 ovarian
TK-10 renal = system: TK-10 renal
MOLT-4 leukemia = system: MOLT-4 leukemia
NCI-H226 lung = system: NCI-H226 lung
SF-268 CNS = system: SF-268 CNS
BT-549 breast = system: BT-549 breast
SK-OV-3 ovarian = system: SK-OV-3 ovarian
SW-620 colon = system: SW-620 colon
NCI/ADR-RES ovarian = system: NCI/ADR-RES ovarian
HS 578T breast = system: HS 578T breast
HOP-92 NSCLC = system: HOP-92 NSCLC
MDA-N = system: MDA-N
SNB-19 CNS = system: SNB-19 CNS
OVCAR-8 ovarian = system: OVCAR-8 ovarian
T-47D breast = system: T-47D breast
HCT-116 colon = system: HCT-116 colon
KM12 colon = system: KM12 colon
UACC-257 melanoma = system: UACC-257 melanoma
PC-3 prostate = system: PC-3 prostate
HCT-15 colon = system: HCT-15 colon
HT29 colon = system: HT29 colon
UACC-62 melanoma = system: UACC-62 melanoma
SF-539 CNS = system: SF-539 CNS
A498 renal = system: A498 renal
M14 melanoma = system: M14 melanoma
CAKI-1 renal = system: CAKI-1 renal
U251 CNS = system: U251 CNS
IGROV1 ovarian = system: IGROV1 ovarian
SF-295 CNS = system: SF-295 CNS
MCF7 breast = system: MCF7 breast
EKVX NSCLC = system: EKVX NSCLC
LOX IMVI melanoma = system: LOX IMVI melanoma
OVCAR-5 ovarian = system: OVCAR-5 ovarian
RXF 393 renal = system: RXF 393 renal
K-562 leukemia = system: K-562 leukemia
HL-60(TB) leukemia = system: HL-60(TB) leukemia
SR leukemia = system: SR leukemia
CCRF-CEM leukemia = system: CCRF-CEM leukemia
786-0 renal = system: 786-0 renal
SK-MEL-2 melanoma = system: SK-MEL-2 melanoma
SN12C renal = system: SN12C renal
COLO 205 colon = system: COLO 205 colon

Work on CN(CCCN(C)Cc1ccc(Cl)c(Cl)c1)CCN1CCCC1 yielded a TGI (DU-145 prostate) greater than 100 µM, a TGI (HOP-62 NSCLC) of 98.2 µM and a TGI (MALME-3M melanoma) of 30.9 µM. It also gave a TGI (MDA-MB-435) of 11.7 µM, a TGI (NCI-H460 lung) of 70.5 µM and a TGI (MDA-MB-231 breast) of 37.3 µM. It also gave a TGI (HCC-2998 colon) of 11.8 µM, a TGI (SK-MEL-28 melanoma) of 4.6 µM and a TGI (OVCAR-3 ovarian) greater than 100 µM. It also gave a TGI (A549 NSCLC) greater than 80.9 µM, a TGI (NCI-H23 lung) greater than 100 µM and a TGI (SNB-75 CNS) of 81.7 µM. The TGI (RPMI-8226 leukemia) was 17.5 µM, the TGI (NCI-H522 lung) was 37.1 µM and the TGI (SK-MEL-5 melanoma) was 19.5 µM. The TGI (ACHN renal) was greater than 100 µM, the TGI (UO-31 renal) was 10 µM and the TGI (OVCAR-4 ovarian) was greater than 100 µM. The TGI (TK-10 renal) was greater than 82.7 µM, the TGI (MOLT-4 leukemia) was 37.1 µM and the TGI (NCI-H226 lung) was 55.6 µM. For the same molecule, the TGI (SF-268 CNS) was greater than 93.5 µM, the TGI (BT-549 breast) was greater than 100 µM and the TGI (SK-OV-3 ovarian) was greater than 100 µM. For the same molecule, the TGI (SW-620 colon) was greater than 100 µM, the TGI (NCI/ADR-RES ovarian) was greater than 100 µM and the TGI (HS 578T breast) was greater than 53.6 µM. It also gave a TGI (HOP-92 NSCLC) greater than 28.3 µM, a TGI (MDA-N) of 15.8 µM and a TGI (SNB-19 CNS) greater than 100 µM. The TGI (OVCAR-8 ovarian) was greater than 100 µM, the TGI (T-47D breast) was greater than 80.6 µM and the TGI (HCT-116 colon) was greater than 54.2 µM. For the same molecule, the TGI (KM12 colon) was greater than 100 µM, the TGI (UACC-257 melanoma) was 7.18 µM and the TGI (PC-3 prostate) was greater than 100 µM. It also gave a TGI (HCT-15 colon) greater than 88.4 µM, a TGI (HT29 colon) of 32.2 µM and a TGI (UACC-62 melanoma) of 3.67 µM. The TGI (SF-539 CNS) was 45.1 µM, the TGI (A498 renal) was 28.2 µM and the TGI (M14 melanoma) was 15.7 µM. It also gave a TGI (CAKI-1 renal) greater than 93.5 µM, a TGI (U251 CNS) of 47 µM and a TGI (IGROV1 ovarian) greater than 62.8 µM. It also gave a TGI (SF-295 CNS) of 53.9 µM, a TGI (MCF7 breast) of 43.6 µM and a TGI (EKVX NSCLC) greater than 100 µM. For the same molecule, the TGI (LOX IMVI melanoma) was 41.2 µM, the TGI (OVCAR-5 ovarian) was greater than 86.3 µM and the TGI (RXF 393 renal) was 67.9 µM. The TGI (K-562 leukemia) was 15 µM, the TGI (HL-60(TB) leukemia) was greater than 100 µM and the TGI (SR leukemia) was 31.9 µM. It also gave a TGI (CCRF-CEM leukemia) of 24.6 µM, a TGI (786-0 renal) of 31.6 µM and a TGI (SK-MEL-2 melanoma) of 26.4 µM. It also gave a TGI (SN12C renal) greater than 100 µM and a TGI (COLO 205 colon) of 33 µM.
For S=C1Cc2cc3ccccc3nc2-c2ccccc2N1, the TGI (DU-145 prostate) was greater than 100 µM, the TGI (HOP-62 NSCLC) was 30.7 µM and the TGI (MALME-3M melanoma) was 47.6 µM. For the same molecule, the TGI (MDA-MB-435) was greater than 68.2 µM, the TGI (NCI-H460 lung) was greater than 51.2 µM and the TGI (MDA-MB-231 breast) was 27 µM. The TGI (HCC-2998 colon) was 36 µM, the TGI (SK-MEL-28 melanoma) was greater than 59.1 µM and the TGI (OVCAR-3 ovarian) was 27.9 µM. The TGI (A549 NSCLC) was greater than 64.8 µM, the TGI (NCI-H23 lung) was 41.6 µM and the TGI (SNB-75 CNS) was 17.5 µM. For the same molecule, the TGI (RPMI-8226 leukemia) was greater than 100 µM, the TGI (NCI-H522 lung) was 43.1 µM and the TGI (SK-MEL-5 melanoma) was greater than 100 µM. For the same molecule, the TGI (ACHN renal) was 41.4 µM, the TGI (UO-31 renal) was 24.1 µM and the TGI (OVCAR-4 ovarian) was greater than 40.4 µM. It also gave a TGI (TK-10 renal) of 44.6 µM, a TGI (MOLT-4 leukemia) greater than 100 µM and a TGI (NCI-H226 lung) of 46.9 µM. For the same molecule, the TGI (SF-268 CNS) was 91.6 µM, the TGI (BT-549 breast) was greater than 59.1 µM and the TGI (SK-OV-3 ovarian) was 15.4 µM. For the same molecule, the TGI (SW-620 colon) was greater than 70.4 µM, the TGI (NCI/ADR-RES ovarian) was 29 µM and the TGI (HS 578T breast) was greater than 63.7 µM. The TGI (HOP-92 NSCLC) was 20.2 µM, the TGI (MDA-N) was greater than 100 µM and the TGI (SNB-19 CNS) was greater than 47.4 µM. The TGI (OVCAR-8 ovarian) was 31.2 µM, the TGI (T-47D breast) was 28.7 µM and the TGI (HCT-116 colon) was 30.8 µM. It also gave a TGI (KM12 colon) greater than 100 µM, a TGI (UACC-257 melanoma) of 65.5 µM and a TGI (PC-3 prostate) of 80.7 µM. For the same molecule, the TGI (HCT-15 colon) was greater than 87.3 µM, the TGI (HT29 colon) was greater than 100 µM and the TGI (UACC-62 melanoma) was 25.7 µM. The TGI (SF-539 CNS) was 29.4 µM, the TGI (A498 renal) was 18.6 µM and the TGI (M14 melanoma) was greater than 64.2 µM. For the same molecule, the TGI (CAKI-1 renal) was 54.5 µM, the TGI (U251 CNS) was 28.3 µM and the TGI (IGROV1 ovarian) was 65.1 µM. The TGI (SF-295 CNS) was 42.2 µM, the TGI (MCF7 breast) was greater than 79 µM and the TGI (EKVX NSCLC) was 79.2 µM. It also gave a TGI (LOX IMVI melanoma) greater than 69.8 µM, a TGI (OVCAR-5 ovarian) greater than 91.9 µM and a TGI (RXF 393 renal) of 24.9 µM. For the same molecule, the TGI (K-562 leukemia) was greater than 100 µM, the TGI (HL-60(TB) leukemia) was greater than 100 µM and the TGI (SR leukemia) was greater than 100 µM. For the same molecule, the TGI (CCRF-CEM leukemia) was greater than 100 µM, the TGI (786-0 renal) was 28.4 µM and the TGI (SK-MEL-2 melanoma) was 61.8 µM. It also gave a TGI (SN12C renal) of 32.6 µM and a TGI (COLO 205 colon) greater than 100 µM.
